Reference: patent US7618975B2, “4-arylamino-quinazolines and analogs as activators of caspases and inducers of apoptosis and the use thereof” (Myriad Pharmaceuticals, Inc., priority 2003, dated 2009)

How the values were obtained:
T-47D cells = experiment: Caspase cascade activation (N-(Ac-DEVD)-N′-ethoxycarbonyl-R110 fluorogenic substrate) in T-47D cells; format: cell-based, Human; settings: T-47D; for Caspase activity Ratio T-47D (24 hr) / Caspase activity Ratio T-47D (48 hr): ratio of net RFU to control; for Ratio T-47D (48 hr): benzohydrazide analogs table
[1] = system: tubulin (Cytoskeleton #ML113, MAP-rich); experiment: Inhibition of tubulin polymerization (DAPI fluorescence); format: biochemical; settings: 30 minutes preincubation, 30 minutes at 37° C.
Procedure: Lyophilized tubulin (Cytoskeleton #ML113, 1 mg, MAP-rich) was assayed for the effect of the test compound on tubulin polymerization as measured by change in fluorescence for 4′,6-diamidino-2-phenylindole (DAPI) (Barron, D. M. et al. Analytical Biochem., 2003, 315, 49-56.). 1 μl of serial dilutions of each test compound (from 100×DMSO stock) was added in 96 well plate format and preincubated for 30 minutes with 94 ul of the non-GTP supplemented tubulin supernatant. 5 μl of DAPI/GTP solution was added to initiate polymerization and incubated for 30 minutes at 37° C. Fluorescence was read with excitation 350 nm, emission wavelength 485 nm on a Tecan Spectraflour Plus. Polymerized tubulin (DMSO and with the tubulin stabilizer Taxol® (paclitaxel)) gives a higher DAPI fluorescence as compared to non-polymerized tubulin (vinblastine and colchicine used to determine baseline).

SMILES | Caspase activity Ratio T-47D (24 hr) (T-47D cells) | IC50 [1] [nM] | Caspase activity Ratio T-47D (48 hr) (T-47D cells) | Ratio T-47D (48 hr) (T-47D cells)
Cc1ccc(N(C)c2nc(Cl)nc3ccccc23)cc1 [Example 2, (2-Chloro-quinazolin-4-yl)-(4-methyl-phenyl)-methyl-amine] | 6.7 | 3000 |  | 
COc1ccc(Nc2nc(Cl)nc3ccccc23)cc1 [Example 7, (2-Chloro-quinazolin-4-yl)-(4-methoxy-phenyl)-amine] | 1.2 | > 50000 | 1.0 | 
COc1ccc(N(C)c2nc(N)nc3ccccc23)cc1 [Example 12, N^4-(4-Methoxy-phenyl)-N^4-methyl-quinazoline-2,4-diamine] | 5.3 | 2000 | 12.8 | 
COc1cccc(N(C)c2nc(Cl)nc3ccccc23)c1 [Example 43, (2-Chloro-quinazolin-4-yl)-(3-methoxy-phenyl)-methyl-amine] |  | 2000 | 14.7 | 
COc1ccc(N(C)c2nc(Cl)nc3cc(OC)c(OC)cc23)cc1 [Example 20, (2-Chloro-6,7-dimethoxyquinazolin-4-yl)-(4-methoxy-phenyl)-methyl-amine] | 13.1 | 3000 |  | 
Cc1ccc(N(C)c2ncnc3ccccc23)cc1 [Example 35, (4-Methyl-phenyl)-methyl-quinazolin-4-yl-amine] | 7.2 | 4000 |  | 
COc1ccc(N(C)c2nc(Cl)nc3ccccc23)c(OC)c1 [Example 41, (2-Chloro-quinazolin-4-yl)-(2,4-dimethoxy-phenyl)-methyl-amine] |  | < 1000 | 12.4 | 
COc1ccc(N(C)c2nc(Cl)nc3ccccc23)cn1 [Example 36, (2-Chloro-quinazolin-4-yl)-(6-methoxy-pyridin-3-yl)-methyl-amine] | 6.7 | < 1000 |  | 
COc1ccc(N(C)c2nccc3ccccc23)cc1 [Example 65, (Isoquinolin-1-yl)-(4-methoxy-phenyl)-methyl-amine] |  | 10000 | 13.7 | 
CN(c1ccccc1)c1nc(Cl)nc2ccccc12 [Example 6, (2-Chloro-quinazolin-4-yl)-phenyl-methyl-amine] | 6.7 | 4000 |  | 
COc1ccc(OC)c(Nc2nc(Cl)nc3ccccc23)c1 [Example 31, (2-Chloro-quinazolin-4-yl)-(2,5-dimethoxy-phenyl)-amine] | 8.0 | 10000 | 14.7 | 
CNc1nc(N(C)c2ccc(OC)nc2)c2ccccc2n1 [Example 129, (2-Methylamino-quinazolin-4-yl)-(6-methoxy-pyridin-3-yl)-methyl-amine] | 10 |  |  | 
COc1cnc(Nc2nc(C)nc3ccccc23)nc1 [Example 141, (5-Methoxy-pyrimidin-2-yl)-(2-methyl-quinazolin-4-yl)-amine] | 1.2 |  |  | 
COc1ccccc1Nc1nc(Cl)nc2ccccc12 [Example 33, (2-Chloro-quinazolin-4-yl)-(2-methoxy-phenyl)-amine] |  |  | 1.0 | 
Cc1nc(N(C)c2ccc(OC(C)C)cc2)c2ccccc2n1 [Example 86, (4-Isopropoxy-phenyl)-(2-methyl-quinazolin-4-yl)-methyl-amine] | 6.2 |  |  | 
COc1ccc(N(c2nc(Cl)nc3ccccc23)C2CCCC2)cc1 [Example 45, (2-Chloro-quinazolin-4-yl)-cyclopentyl-(4-methoxy-phenyl)-amine] |  |  | 1.0 | 
COc1ccc(N(C)c2nc(CO)nc3ccccc23)cc1 [Example 76] | 5.6 |  | 14.1 | 
COc1ccc(N(C)c2nc(NCCCN(C)C)nc3ccccc23)cc1 [Example 47, N^2-(3-Dimethylamino-propyl)-N^4-(4-methoxy-phenyl)-N^4-methyl-quinazoline-2,4-diamine] |  |  | 11.5 | 
COc1ccc(N(C)c2nc(-c3ccccc3)nc3ccccc23)cc1 [Example 83, (4-Methoxy-phenyl)-(2-phenyl-quinazolin-4-yl)-methyl-amine] |  |  | 10.8 | 
COc1ccc(N(C)c2nc(NCCc3c[nH]cn3)nc3ccccc23)cc1 [Example 46, N^2-[2-(1H-Imidazol-4-yl)-ethyl]-N^4-(4-methoxy-phenyl)-N^4-methyl-quinazoline-2,4-diamine] | 12.8 |  | 9.4 | 
COc1ccc(N(C)c2nc(C)nc3cc(N)ccc23)cc1 [Example 113, (7-Amino-2-methyl-quinazolin-4-yl)-(4-methoxy-phenyl)-methyl-amine] | 3.7 |  |  | 
COc1ccc(N(C)c2nc(Cl)nc3cccc(C)c23)cc1 [Example 58, (2-Chloro-5-methyl-quinazolin-4-yl)-(4-methoxy-phenyl)-methyl-amine] |  |  | 10.8 | 

SMILES | Caspase activity Ratio T-47D (24 hr) (T-47D cells) | IC50 [1] [nM] | Caspase activity Ratio T-47D (48 hr) (T-47D cells) | Ratio T-47D (48 hr) (T-47D cells)
COc1ccc(N(C)c2nc(C)nc3ccccc23)nc1 [Example 138, (5-Methoxy-pyridin-2-yl)-(2-methyl-quinazolin-4-yl)-methyl-amine] | 5.0 |  |  | 
CN(c1nc(Cl)nc2ccccc12)[C@H]1CC[C@@H](C)CC1 [Example 132, (2-Chloro-quinazolin-4-yl)-(cis-4-methylcyclohexyl)-methyl-amine] | 1.2 |  |  | 
CSc1nc(N(C)NC(=O)c2ccccc2)c2ccccc2n1 [N′-methyl-N′-(2-(methylthio)quinazolin-4-yl)benzohydrazide] |  |  |  | 14.7
COc1ccc(N(C)c2nc(OC(C)C)nc3cccc(Cl)c23)cc1 [Example 64, (5-Chloro-2-isopropoxy-quinazolin-4-yl)-(4-methoxy-phenyl)-methyl-amine] |  |  | 1 | 
COc1ccc(N(C)c2nc(N(C)C)nc3ccccc23)cc1 [Example 122, (2-Dimethylamino-quinazolin-4-yl)-(4-methoxy-phenyl)-methyl-amine] | 8.2 |  |  | 
COc1ccc(Nc2nc(C)nc3ccccc23)cc1F [Example 79, (3-Fluoro-4-methoxy-phenyl)-(2-methyl-quinazolin-4-yl)-amine] | 0.7 |  |  | 
Cc1nc(Nc2ccc(OC(F)F)cc2)c2ccccc2n1 [Example 78, (4-Difluoromethoxy-phenyl)-(2-methyl-quinazolin-4-yl)-amine] | 0.6 |  |  | 
COc1cc2nc(Cl)nc(N(C)c3ccc(C)cc3)c2cc1OC [Example 22, (2-Chloro-6,7-dimethoxyquinazolin-4-yl)-(4-methyl-phenyl)-methyl-amine] | 1.0 |  | 1.0 | 
Clc1nc(Nc2ccncc2)c2ccccc2n1 [Example 27, (2-Chloro-quinazolin-4-yl)-pyridin-4-yl-amine] |  |  | 1.0 | 
CCOc1ccc(Nc2nc(C)nc3ccccc23)cc1 [Example 106, (4-Ethoxy-phenyl)-(2-methyl-quinazolin-4-yl)-amine] | 1.1 |  |  | 
COc1ccc(N(C)c2nc(Cl)nc3c(Cl)cccc23)cc1 [Example 89, (2,8-Dichloro-quinazolin-4-yl)-(4-methoxy-phenyl)-methyl-amine] |  |  | 7.8 | 
COc1cccc(N(C)c2nc(Cl)nc3ccccc23)c1OC [Example 39, (2-Chloro-quinazolin-4-yl)-(2,3-dimethoxy-phenyl)-methyl-amine] | 4.5 |  |  | 
COc1ccc(N(C)c2nc(Cl)nc3c(C)cccc23)cc1 [Example 59, (2-Chloro-8-methyl-quinazolin-4-yl)-(4-methoxy-phenyl)-methyl-amine] |  |  | 7.1 | 
COc1ccc(Nc2nc(C)nc3ccccc23)nc1 [Example 137, (5-Methoxy-pyridin-2-yl)-(2-methyl-quinazolin-4-yl)-amine] | 1.2 |  |  | 
Cc1nc(N(C)c2ccncc2)c2ccccc2n1 [Example 136, (2-Methyl-quinazolin-4-yl)-(pyridin-4-yl)-methyl-amine] | 1.2 |  |  | 
CN(NC(=O)c1ccccc1F)c1nc(C(F)(F)F)nc2ccccc12 [2-fluoro-N′-(2-(trifluoromethyl)quinazolin-4-yl)-N′-methylbenzohydrazide] |  |  |  | 13.7
Cc1nc(N(C)c2ccc(O)cc2)c2ccccc2n1 [Example 93, (4-Hydroxy-phenyl)-(2-methyl-quinazolin-4-yl)-methyl-amine] | 11.3 |  |  | 
CCOc1ccc(N(C)c2nc(C)nc3ccccc23)cc1 [Example 107, (4-Ethoxy-phenyl)-(2-methyl-quinazolin-4-yl)-methyl-amine] | 5.2 |  |  | 
CN(c1ccc(Cl)cc1)c1nc(N(C)c2ccc(Cl)cc2)c2ccccc2n1 [Example 19, N^2,N^4-Bis(4-chloro-phenyl)-N^2,N^4-dimethyl-quinazoline-2,4-diamine] | 1.0 |  | 1.0 | 
COc1ccc(N(C)c2nc(Cl)nc3cc(C)ccc23)cc1 [Example 57, (2-Chloro-7-methyl-quinazolin-4-yl)-(4-methoxy-phenyl)-methyl-amine] |  |  | 6.2 | 
COc1ccc(N(C)c2ccnc3ccccc23)cc1 [Example 66, (4-Methoxy-phenyl)-methyl-(quinolin-4-yl)-amine] | 7.2 |  | 12.5 | 
